{"source": "patent US3949075A", "about": "“Anti-microbial compounds of 2', 4' substituted anilides of substituted nitrosalicylic acid for quadruped animals” (Ferro Corporation, priority 1974, dated 1976)", "key": {"Haemonchus contortus": {"system": "Haemonchus contortus", "assay": "Percent of Haemonchus destroyed or expelled in infected sheep (egg count after treatment)", "format": "in vivo, Haemonchus contortus (in sheep)", "conditions": "sheep", "experimental": "Two groups of sheep were used in the tests. One group was used as a non-medicated control, while the other group was treated with the compound under investigation. Helminth-free young lambs were infected with about 10,000 filariform larvae of Haemonchus contortus. In three weeks when the infection became apparent, egg counts were made to determine the density of the worm burden.\nThe egg count was carried out using the following modified Stoll method. Three grams of sheep feces were taken rectally from each animal and placed in a Stoll flask. To each flask, tap water was added to the top line. The fecal pellets were too hard to break down, the flasks were closed with rubber stoppers and kept in the refrigerator for several hours. The flasks were thoroughly shaken and a 1 ml. sample was drawn from the middle using a wide mouth pipette. This 1 ml. sample was transferred to an 8 ml. plastic tube, to which enough saturated sodium chloride solution was added to reach the rim. The tubes were then centrifuged for 10 minutes at 1500 r.p.m. Then sodium chloride solution was added with a medicine dropper forming a concave miniscus. A cover glass was carefully added and the tubes were kept in a refrigerator for ten to twenty minutes. During that period, the nematode ova flowed upward and adhered to the bottom of the cover glass slip. At the end of the 20-minute period, the cover slip was carefully detached from the miniscus and transferred to a microscopic slide. The ova were then counted under a microscope equipped with 10X ocular and 10X objective lens. Each ovum under the microscope represented 20 ova in the sample.\nAnimals with sufficiently high egg counts were taken out of the pool and housed in experimental pens. Since the salicylanilides of the present invention are water insoluble, the compounds were first ground using a mortar and pestle and then were placed in a carboxymethyl cellulose solution. The particles were further micronized ultrasonically. The compound was then administered to two or three animals by Oesophageal gavage. Control, untreated animals, received only the carboxymethyl cellulose solution in a similar manner. On the sixth and seventh day after treatment, fecal pellets were taken from the rectum of the control as well as the treated animals and egg counts were made.\n(§1) The results of tests on sheep in a manner described, supra, using compounds of the present invention are given in Table 1, Examples 5 through 13. The numbers in the column headed \"Haemonchus (15 mg/kg)\" refer to the percent of parasites destroyed or expelled when the indicated compound was introduced into the rumen of sheep at a dosage of 15 milligrams per kilogram of body weight. The values under \"Tolerance (mg/kg)\" refer to the highest test dosage in the milligrams of anthelmintic per kilogram of body weight at which the sheep developed no toxic symptoms. \"Tol.\" is an abbreviation for \"tolerated\". The symbols R1 and R2 refer to those of Formula I in these and other following examples.\n(§2) The data of the tables were generated using procedures previously described. The compounds tested are disubstituted and, except for Example 50 which is dibromo, are dichloro. Where the position for the substituents is other than 2' and 4', it is indicated. Under the indicated microorganisms, the values given in this and the following tables, should be read as: percentage of microorganism killed/dose in milligrams per kilogram of body weight. Under \"Tolerance\", the term \"Tol.\" means \"tolerated\", \"Tox.\" means \"toxic\", and \"Sym.\" means \"symptoms of toxic reaction\", all at the dosage value which follows. It will be appreciated that there is no sharp toxicity end point in determining toxicity to living sheep."}, "Fasciola hepatica": {"system": "Fasciola hepatica", "assay": "Test for activity against liver flukes, Fasciola hepatica, in infected sheep", "format": "in vivo", "conditions": "Fasciola hepatica, sheep, Tables VIII-XI, read-out: Fasciola hepatica, percentage of microorganism killed", "experimental": "(§3) Test for activity against liver flukes were conducted as follows:\n(§4) Eggs of Fasciola hepatica were collected from the bile of donor sheep. The eggs were embryonated and snails were infected (the genus Lymnaea serves as intermediate host) to produce Metacercariae which are the infective forms for sheep. Each sheep was infected with 250 metacercariae intraruminally. When the infection became patent in ca. 80 days, egg counts were carried out to determine the degree of worm burden. The liver was processed to recover F. hepatica in the untreated and treated sheep.\nas §2"}, "[1]": {"assay": "Tolerance / toxicity in sheep", "format": "in vivo", "conditions": "in vivo, Table 1, read-out: Tolerance, highest test dosage at which the sheep developed no toxic symptoms", "experimental": "as §1\nThe importance of the 2',4' substitution on the anilide moiety of Formula I is illustrated by the case of the dichloro substitution as summarized in Table III. […] This has been mentioned briefly hereinabove. As used herein, \"toxic\" refers to death of sheep resulting from the use of the indicated compound at the indicated dosage.\nas §2"}, "[2]": {"system": "liver flukes of the genus Fasciola", "assay": "Utility against liver flukes of the genus Fasciola in sheep (oral)", "format": "in vivo", "conditions": "15 mg/kg", "experimental": "as §3, §4\nThe compounds of this invention also have utility against liver flukes."}, "[3]": {"system": "Trichophyton mentagrophytes", "assay": "Inhibition of fungus on Sabouraud agar", "format": "cell-based", "conditions": "120 hours at 25°C., read-out: inhibitory concentration", "experimental": "(§5) The following procedure for antibacterial evaluation was used. Test compounds were dissolved in a suitable solvent (typically dimethyl sulfoxide or acetone) and incorporated in a nutrient agar at various concentrations. The plates were then streaked with cultures of the appropriate bacteria. The inoculum contained about 8 × 10^8 organisms per milliliter. After incubation for 48 hours at 37°C., the plates were examined for evidence of growth of the microorganisms. The minimum concentration necessary for complete inhibition of growth was noted.\nFor testing against the fungus Trichophyton the same procedure was used, except that the test medium was Sabouraud agar, and the plates were cultured for 120 hours at 25°C. before evaluation for evidence of growth. The inoculum added to the culture media contained about 5 × 10^6 spores in a water suspension containing 0.1% peptone."}, "Alternaria solani": {"system": "Alternaria solani", "assay": "Reducing infestation on tomatoes, early blight", "format": "in vivo, Alternaria solani (on tomatoes)"}, "Salmonella choleresuis": {"system": "Salmonella choleresuis", "assay": "Agar plate minimum inhibitory concentration", "format": "cell-based", "conditions": "48 h, read-out: Minimum Inhibitory Concentration", "experimental": "as §5"}, "Escherichia coli": {"system": "Escherichia coli", "assay": "Agar plate minimum inhibitory concentration", "format": "cell-based", "conditions": "nutrient agar, 48 hours at 37°C., complete inhibition", "experimental": "as §5"}, "Salmonella gallinarum": {"system": "Salmonella gallinarum", "assay": "Agar plate minimum inhibitory concentration", "format": "cell-based", "conditions": "Salmonella enterica, nutrient agar, 48 hours at 37°C., complete inhibition", "experimental": "as §5"}, "Staphylococcus aureaus": {"system": "Staphylococcus aureaus", "assay": "Agar plate minimum inhibitory concentration", "format": "cell-based", "conditions": "48 h, read-out: Minimum Inhibitory Concentration", "experimental": "as §5"}, "Haemophilus gallinarum": {"system": "Haemophilus gallinarum", "assay": "Agar plate minimum inhibitory concentration", "format": "cell-based", "conditions": "Avibacterium paragallinarum, nutrient agar, 48 hours at 37°C., complete inhibition", "experimental": "as §5"}, "Streptococcus foecalis": {"system": "Streptococcus foecalis", "assay": "Agar plate minimum inhibitory concentration", "format": "cell-based", "conditions": "48 h, read-out: Minimum Inhibitory Concentration", "experimental": "as §5"}, "Phytophthora infestans": {"system": "Phytophthora infestans", "format": "in vivo, Phytophthora infestans (on tomatoes)"}, "[4]": {"conditions": "Haemonchus contortus, Table V, read-out: Effectiveness at 15 mg/kg against Haemonchus"}, "[5]": {"conditions": "Haemonchus contortus, Tables VIII-XI, read-out: Haemonchus, percentage of microorganism killed"}}, "note": "Read-outs that look alike come from different tables or passages of the source."}
{"molecule": "Cc1c([N+](=O)[O-])cc(C(C)(C)C)c(O)c1C(=O)Nc1ccc(Cl)cc1", "note": "[Example 7, 3-tert. butyl-4'-chloro-6-methyl-5-nitrosalicylanilide]", "values": [{"measurement": "inhibition in vivo at 2 mg/kg", "setting": "Haemonchus contortus; Haemonchus contortus, 2 mg/kg, Tables VIII-XI, read-out: Haemonchus, percentage of microorganism killed", "result": 0, "unit": "%"}, {"measurement": "inhibition in vivo at 5 mg/kg", "setting": "Haemonchus contortus; Haemonchus contortus, 5 mg/kg, Tables VIII-XI, read-out: Haemonchus, percentage of microorganism killed", "result": 65, "unit": "%"}, {"measurement": "inhibition in vivo at 15 mg/kg", "setting": "Haemonchus contortus; [4]", "result": 81, "unit": "%"}, {"measurement": "inhibition in vivo at 15 mg/kg", "setting": "Haemonchus contortus; [5]", "result": 81, "unit": "%"}, {"measurement": "Haemonchus (2 mg/kg), percent of parasites destroyed or expelled", "setting": "Haemonchus contortus; into rumen, 2 mg/kg, Table 1", "result": 0, "unit": "%"}, {"measurement": "Haemonchus (5 mg/kg), percent of parasites destroyed or expelled", "setting": "Haemonchus contortus; into rumen, 5 mg/kg, Table 1", "result": 65, "unit": "%"}, {"measurement": "Haemonchus (15 mg/kg), percent of parasites destroyed or expelled", "setting": "Haemonchus contortus; into rumen, Table 1", "result": 81, "unit": "%"}, {"measurement": "inhibition in vivo at 2 mg/kg", "setting": "Fasciola hepatica; 2 mg/kg", "result": 0, "unit": "%"}, {"measurement": "inhibition in vivo at 5 mg/kg", "setting": "Fasciola hepatica", "result": 50, "unit": "%"}, {"measurement": "inhibition in vivo at 15 mg/kg", "setting": "Fasciola hepatica", "result": 100, "unit": "%"}, {"measurement": "NOAEL", "setting": "[1]", "result": "15 to 50", "unit": "mg/kg"}, {"measurement": "effect against liver flukes", "setting": "[2]", "result": "efficacious"}, {"measurement": "MIC", "setting": "[3]", "result": 1, "unit": "µg/mL"}]}
{"molecule": "Cc1c([N+](=O)[O-])cc(C(C)(C)C)c(O)c1C(=O)Nc1ccc(Br)cc1", "note": "[Example 8, 4'-bromo-3-tert. butyl-6-methyl-5-nitrosalicylanilide]", "values": [{"measurement": "inhibition in vivo at 15 mg/kg", "setting": "Haemonchus contortus; [4]", "result": 61, "unit": "%"}, {"measurement": "inhibition in vivo at 15 mg/kg", "setting": "Haemonchus contortus; [5]", "result": 61, "unit": "%"}, {"measurement": "Haemonchus (15 mg/kg), percent of parasites destroyed or expelled", "setting": "Haemonchus contortus; into rumen, Table 1", "result": 61, "unit": "%"}, {"measurement": "reducing infestation on tomatoes, early blight", "setting": "Alternaria solani", "result": "effective in reducing infestation"}, {"measurement": "MIC", "setting": "Salmonella choleresuis", "result": 64, "unit": "µg/mL"}, {"measurement": "MIC", "setting": "Escherichia coli", "result": 64, "unit": "µg/mL"}, {"measurement": "MIC", "setting": "Salmonella gallinarum", "result": 64, "unit": "µg/mL"}, {"measurement": "MIC", "setting": "Staphylococcus aureaus", "result": 1, "unit": "µg/mL"}, {"measurement": "MIC", "setting": "Haemophilus gallinarum", "result": 8, "unit": "µg/mL"}, {"measurement": "MIC", "setting": "Streptococcus foecalis", "result": 64, "unit": "µg/mL"}, {"measurement": "reducing infestation on tomatoes, late blight", "setting": "Phytophthora infestans", "result": "effective in reducing infestation"}, {"measurement": "inhibition in vivo at 5 mg/kg", "setting": "Fasciola hepatica", "result": 0, "unit": "%"}, {"measurement": "inhibition in vivo at 15 mg/kg", "setting": "Fasciola hepatica", "result": 100, "unit": "%"}]}
